Data: patent publication US10487088B2, “Tricyclic compound serving as immunomodulator” (Chia Tai Tianqing Pharmaceutical Group Co., Ltd., priority 2016, dated 2019)

target: T1, recombinant human IDO1 enzyme (Homo sapiens, UniProt P14902); experiment: In vitro hIDO1 enzyme activity test (NFK Green fluorescence); assay type: biochemical; conditions: recombinant human IDO1, L-tryptophan substrate, pH 6.5
T1 construct: purchased NTRC NTRC-hlDO-10K
Description: The change of NFK production was detected by using the NFK Green™ fluorescent molecule, which is the metabolite of the IDO1 enzyme, and the IC50 value of the compound was used as an index, to evaluate the inhibitory effect of the compound on the recombinant human IDO1 enzyme.
IDO1 Enzyme Activity Assay Kit, NTRC # NTRC-hlDO-10K;
The compound was diluted to 1 mM in DMSO, and then diluted 3-fold in duplicate wells, with 10 gradients. 48 μL of 50 mM phosphate buffer (pH 6.5) was transferred to the compound plate via Bravo automated liquid handling platform. 2 μL of the diluted solution of the compound in DMSO was then added and mixed, followed by transferring 10 μL therein to an enzyme reaction plate.
The IDO1 enzyme was diluted to 20 nM in the reaction buffer (50 mM phosphate buffer pH 6.5, 0.1% Tween-20, 2% glycerol, 20 mM ascorbic acid, 20 μg/mL catalase and 20 μM methylene blue), and 20 μL of the solution was transferred to an enzyme reaction plate and incubated at 23° C. for 30 min. The reaction was started by adding 10 μL of 400 μM L-type tryptophan substrate and incubated at 23° C. for 90 min. 10 μL of NFK Green™ fluorescent dye was added, and the plate was sealed with the sealing film, incubated at 37° C. for 4 h, and then read on Envision Multimode Plate Reader (Ex 400 nm/Em 510 nm).
The control wells with the IDO1 enzyme but no compound was set as 0% inhibition, and the control wells without the IDO1 enzyme was set as 100% inhibition, and the IC50 value of the compound was calculated by analyzing the data with XLFit 5.

T1 sequence (P14902 whole entry): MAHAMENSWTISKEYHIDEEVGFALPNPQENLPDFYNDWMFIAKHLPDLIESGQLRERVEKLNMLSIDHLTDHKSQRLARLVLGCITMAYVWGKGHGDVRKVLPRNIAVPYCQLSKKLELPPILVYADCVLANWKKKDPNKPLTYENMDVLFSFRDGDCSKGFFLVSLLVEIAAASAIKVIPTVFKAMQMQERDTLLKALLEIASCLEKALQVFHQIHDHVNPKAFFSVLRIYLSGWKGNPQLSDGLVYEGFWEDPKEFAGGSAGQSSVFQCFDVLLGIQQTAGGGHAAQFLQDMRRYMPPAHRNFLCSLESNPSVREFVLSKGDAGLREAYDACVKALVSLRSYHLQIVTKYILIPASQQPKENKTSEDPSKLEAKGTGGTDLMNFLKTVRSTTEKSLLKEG

| IC50 | Compound |
| --- | --- |
| 5.53 µM | OC1CCCC(C2c3sccc3-c3cncn32)C1 (single isomer, unassigned) [Example 65, 3-(8H-thieno[3′,2′:3,4]pyrrolo[1,2-c]imidazol-8-yl)cyclohexanol] |
| > 10 µM | OC1CCCC(C2c3sccc3-c3cncn32)C1 (single isomer, unassigned) [Example 66, 3-(8H-thieno[3′,2′:3,4]pyrrolo[1,2-c]imidazol-8-yl)cyclohexanol] |
| 0.162 µM | OC1CCCC(C2c3sccc3-c3cncn32)C1 (single isomer, unassigned) [Example 67, 3-(8H-thieno[3′,2′:3,4]pyrrolo[1,2-c]imidazol-8-yl)cyclohexanol] |
| 1.83 µM | OC1CCCC(C2c3sccc3-c3cncn32)C1 (single isomer, unassigned) [Example 68, 3-(8H-thieno[3′,2′:3,4]pyrrolo[1,2-c]imidazol-8-yl)cyclohexanol] |
| 2.32 µM | OC1CCCC(C2c3sccc3-c3cncn32)C1 (single isomer, unassigned) [Example 69, 3-(8H-thieno[3′,2′:3,4]pyrrolo[1,2-c]imidazol-8-yl)cyclohexanol] |
| 1.09 µM | OC1CCCC(C2c3sccc3-c3cncn32)C1 (single isomer, unassigned) [Example 70, 3-(8H-thieno[3′,2′:3,4]pyrrolo[1,2-c]imidazol-8-yl)cyclohexanol] |
| > 10 µM | OC1CCCC(C2c3sccc3-c3cncn32)C1 (single isomer, unassigned) [Example 71, 3-(8H-thieno[3′,2′:3,4]pyrrolo[1,2-c]imidazol-8-yl)cyclohexanol] |
| 0.257 µM | c1cc2c(s1)C(C1CCCC1)n1cncc1-2 (single isomer, unassigned) [Example 74, 8-cyclopentyl-8H-thieno[3,4]pyrrolo[1,5-a]imidazole] |
| > 10 µM | c1cc2c(s1)C(C1CCCC1)n1cncc1-2 (single isomer, unassigned) [Example 75, 8-cyclopentyl-8H-thieno[3,4]pyrrolo[1,5-a]imidazole] |
| 0.883 µM | FC1(F)[C@@H]2C[C@H](C3c4sccc4-c4cncn43)C[C@@H]21 (single isomer, unassigned) [Example 76, 8-(6,6-difluoro-3-bicyclo[3.1.0]cyclohexyl)-8H-thieno[3,4]pyrrolo[1,5-a]imidazole (cis)] |
| > 10 µM | CC1(C)CC(C2c3sccc3-c3cncn32)CCO1 (single isomer, unassigned) [Example 78, 8-(2,2-dimethyltetrahydropyran-4-yl)-8H-thieno[3,4]pyrrolo[1,5-a]imidazole] |
| > 10 µM | CC1(C)CC(C2c3sccc3-c3cncn32)CCO1 (single isomer, unassigned) [Example 79, 8-(2,2-dimethyltetrahydropyran-4-yl)-8H-thieno[3,4]pyrrolo[1,5-a]imidazole] |
| 5.05 µM | CC1(C)CC(C2c3sccc3-c3cncn32)CCO1 (single isomer, unassigned) [Example 80, 8-(2,2-dimethyltetrahydropyran-4-yl)-8H-thieno[3,4]pyrrolo[1,5-a]imidazole] |
| 8.27 µM | CC1(C)CC(C2c3sccc3-c3cncn32)CCO1 (single isomer, unassigned) [Example 81, 8-(2,2-dimethyltetrahydropyran-4-yl)-8H-thieno[3,4]pyrrolo[1,5-a]imidazole] |
| 1.55 µM | OC1CCCCC1C1c2sccc2-c2cncn21 (single isomer, unassigned) [Example 82] |
| 1.27 µM | OC1CCCCC1C1c2sccc2-c2cncn21 (single isomer, unassigned) [Example 83] |
| 0.454 µM | OC1CCCCC1C1c2sccc2-c2cncn21 (single isomer, unassigned) [Example 84] |
| 0.545 µM | c1ccc(N2CCC(C3c4sccc4-c4cncn43)CC2)cc1 (single isomer, unassigned) [Example 86, 8-(1-phenylpiperidin-4-yl)-8H-thieno[3′,2′:3,4]pyrrolo[1,2-c]imidazole] |
| > 10 µM | c1ccc(N2CCC(C3c4sccc4-c4cncn43)CC2)cc1 (single isomer, unassigned) [Example 87, 8-(1-phenylpiperidin-4-yl)-8H-thieno[3′,2′:3,4]pyrrolo[1,2-c]imidazole] |

| IC50 | Compound |
| --- | --- |
| 0.478 µM | c1ccc(C2CCC(C3c4sccc4-c4cncn43)CC2)cc1 (single isomer, unassigned) [Example 88, 8-(4-phenylcyclohexyl)-8H-thieno[3′,2′:3,4]pyrrolo[1,2-c]imidazole] |
| > 10 µM | c1ccc(C2CCC(C3c4sccc4-c4cncn43)CC2)cc1 (single isomer, unassigned) [Example 89, 8-(4-phenylcyclohexyl)-8H-thieno[3′,2′:3,4]pyrrolo[1,2-c]imidazole] |
| > 10 µM | Cc1cc2c(s1)C(C1CCCCC1)n1cncc1-2 (single isomer, unassigned) [Example 90, 8-cyclohexyl-2-dimethyl-8H-thieno[3′,2′:3,4]pyrrolo[1,2-c]imidazole] |
| 6.75 µM | Cc1cc2c(s1)C(C1CCCCC1)n1cncc1-2 (single isomer, unassigned) [Example 91, 8-cyclohexyl-2-dimethyl-8H-thieno[3′,2′:3,4]pyrrolo[1,2-c]imidazole] |
| 0.686 µM | c1ccc2c(C3CCC(C4c5sccc5-c5cncn54)CC3)ccnc2c1 (single isomer, unassigned) [Example 92, 5-(4-(quinolin-4-yl)cyclohexyl)-8H-thieno[3′,2′:3,4]pyrrolo[1,2-c]imidazole] |
| > 10 µM | c1ccc2c(C3CCC(C4c5sccc5-c5cncn54)CC3)ccnc2c1 (single isomer, unassigned) [Example 93, 5-(4-(quinolin-4-yl)cyclohexyl)-8H-thieno[3′,2′:3,4]pyrrolo[1,2-c]imidazole] |
| 1.46 µM | c1ccc2c(C3CCC(C4c5sccc5-c5cncn54)CC3)ccnc2c1 (single isomer, unassigned) [Example 94, 5-(4-(quinolin-4-yl)cyclohexyl)-8H-thieno[3′,2′:3,4]pyrrolo[1,2-c]imidazole] |
| > 10 µM | c1ccc2c(C3CCC(C4c5sccc5-c5cncn54)CC3)ccnc2c1 (single isomer, unassigned) [Example 95, 5-(4-(quinolin-4-yl)cyclohexyl)-8H-thieno[3′,2′:3,4]pyrrolo[1,2-c]imidazole] |
| > 10 µM | O=C(O)C1CCCC(C2c3sccc3-c3cncn32)C1 (single isomer, unassigned) [Example 97, 3-(8H-thieno[3,4]pyrrolo[1,5-a]imidazol-8-yl) cyclohexylcarboxylic acid] |
| > 10 µM | O=C(O)C1CCCC(C2c3sccc3-c3cncn32)C1 (single isomer, unassigned) [Example 98, 3-(8H-thieno[3,4]pyrrolo[1,5-a]imidazol-8-yl) cyclohexylcarboxylic acid] |
| > 10 µM | O=C(O)C1CCCC(C2c3sccc3-c3cncn32)C1 (single isomer, unassigned) [Example 99, 3-(8H-thieno[3,4]pyrrolo[1,5-a]imidazol-8-yl) cyclohexylcarboxylic acid] |
| 6.77 µM | O=C(O)C1CCCC(C2c3sccc3-c3cncn32)C1 (single isomer, unassigned) [Example 100, 3-(8H-thieno[3,4]pyrrolo[1,5-a]imidazol-8-yl) cyclohexylcarboxylic acid] |
| > 10 µM | O=C(O)C1CCCC(C2c3sccc3-c3cncn32)C1 (single isomer, unassigned) [Example 101, 3-(8H-thieno[3,4]pyrrolo[1,5-a]imidazol-8-yl) cyclohexylcarboxylic acid] |
| > 10 µM | O=C(O)C1CCCC(C2c3sccc3-c3cncn32)C1 (single isomer, unassigned) [Example 102, 3-(8H-thieno[3,4]pyrrolo[1,5-a]imidazol-8-yl) cyclohexylcarboxylic acid] |
| > 10 µM | O=C(O)C1CCCC(C2c3sccc3-c3cncn32)C1 (single isomer, unassigned) [Example 103, 3-(8H-thieno[3,4]pyrrolo[1,5-a]imidazol-8-yl) cyclohexylcarboxylic acid] |
| > 10 µM | O=C(O)C1CCCC(C2c3sccc3-c3cncn32)C1 (single isomer, unassigned) [Example 104, 3-(8H-thieno[3,4]pyrrolo[1,5-a]imidazol-8-yl) cyclohexylcarboxylic acid] |
| 0.183 µM | O[C@@H]1CCCC1[C@H]1c2sccc2-c2cncn21 (single isomer, unassigned) [Example 107, (trans)-2-(8H-thieno[3′,2′:3,4]pyrrolo[1,2-c]imidazol-8-yl)cyclopentanol] |
| > 10 µM | O[C@@H]1CCCC1[C@H]1c2sccc2-c2cncn21 (single isomer, unassigned) [Example 108, (trans)-2-(8H-thieno[3′,2′:3,4]pyrrolo[1,2-c]imidazol-8-yl)cyclopentanol] |
| > 10 µM | O[C@@H]1CCCC1[C@H]1c2sccc2-c2cncn21 (single isomer, unassigned) [Example 109, (trans)-2-(8H-thieno[3′,2′:3,4]pyrrolo[1,2-c]imidazol-8-yl)cyclopentanol] |
